Assay results reported in publication PMC7241567 (Journal of Enzyme Inhibition and Medicinal Chemistry, 2020).
“Also recorded” adds a separate entry of the source.

Key:
Type in all cases: biochemical
RIPK3 = target: T1, RIPK3 (Homo sapiens, UniProt Q9Y572); assay: Reaction Biology Kinase HotSpot radiometric kinase assay; conditions: read-out: GW5074 IC50, control compound, footnote a: data for GW5074
T1 construct: purchased Reaction Biology Corp. (Kinase HotSpot service)

FLT3 = target: T2, FLT3 (Homo sapiens, UniProt P36888); assay: as above; conditions: for IC50: FLT3 wild type, read-out: IC50 against FLT3
T2 construct: purchased Reaction Biology Corp. (Kinase HotSpot service)
T2 sequence (P36888 27-993): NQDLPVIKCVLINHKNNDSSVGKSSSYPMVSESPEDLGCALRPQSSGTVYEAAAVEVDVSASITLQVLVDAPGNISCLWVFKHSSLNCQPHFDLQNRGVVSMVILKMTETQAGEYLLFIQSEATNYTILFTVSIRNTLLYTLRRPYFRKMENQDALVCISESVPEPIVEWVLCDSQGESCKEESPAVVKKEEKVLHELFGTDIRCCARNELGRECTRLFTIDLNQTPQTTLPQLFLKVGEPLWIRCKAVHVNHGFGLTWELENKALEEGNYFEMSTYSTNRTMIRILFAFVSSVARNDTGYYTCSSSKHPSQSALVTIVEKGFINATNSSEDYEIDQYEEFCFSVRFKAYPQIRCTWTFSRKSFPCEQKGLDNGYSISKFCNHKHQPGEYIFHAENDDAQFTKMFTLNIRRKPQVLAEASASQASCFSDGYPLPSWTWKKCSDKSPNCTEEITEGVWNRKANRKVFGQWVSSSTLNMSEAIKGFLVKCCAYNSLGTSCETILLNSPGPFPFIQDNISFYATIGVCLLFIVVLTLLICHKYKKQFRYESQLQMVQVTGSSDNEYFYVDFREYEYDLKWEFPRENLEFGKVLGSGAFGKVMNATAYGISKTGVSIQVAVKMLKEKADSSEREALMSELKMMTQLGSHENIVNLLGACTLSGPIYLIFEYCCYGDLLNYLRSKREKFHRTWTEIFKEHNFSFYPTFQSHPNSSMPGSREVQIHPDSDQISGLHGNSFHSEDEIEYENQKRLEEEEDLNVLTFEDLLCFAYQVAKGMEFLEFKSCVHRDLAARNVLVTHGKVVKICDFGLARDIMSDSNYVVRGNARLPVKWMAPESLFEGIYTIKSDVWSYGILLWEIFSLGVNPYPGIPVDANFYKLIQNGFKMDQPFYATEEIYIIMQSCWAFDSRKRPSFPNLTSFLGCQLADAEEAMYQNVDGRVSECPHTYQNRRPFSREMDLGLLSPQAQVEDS

ERK1 = target: T3, ERK1 (Homo sapiens, UniProt P27361); assay: as above; conditions: control compound, footnote b: data for SCH772984
T3 construct: purchased Reaction Biology Corp. (Kinase HotSpot service)
T3 sequence (P27361 whole entry): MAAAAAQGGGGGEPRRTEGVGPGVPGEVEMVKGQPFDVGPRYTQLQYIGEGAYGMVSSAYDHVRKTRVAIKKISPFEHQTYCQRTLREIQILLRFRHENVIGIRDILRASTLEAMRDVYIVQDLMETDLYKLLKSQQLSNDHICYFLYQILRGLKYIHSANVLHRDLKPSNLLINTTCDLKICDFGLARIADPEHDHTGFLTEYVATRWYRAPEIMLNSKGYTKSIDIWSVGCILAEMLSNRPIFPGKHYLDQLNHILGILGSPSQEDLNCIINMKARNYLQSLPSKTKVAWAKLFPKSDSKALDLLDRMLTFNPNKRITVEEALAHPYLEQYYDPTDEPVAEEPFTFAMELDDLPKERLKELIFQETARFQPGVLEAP

[1] = tested on: other kinases including FMS and cKit; assay: Kinase panel screening, overall selectivity; conditions: 36 different kinases, single dose of 10 µM
Procedure: Next, we investigated kinase panel screening of 7d and 7b over 36 different kinases at a single dose of 10 µM (Figure 5). […] High selectivity over cKit might be an opportunity to avoid myelosuppression toxicity, which was reported from a dual FLT3/cKit inhibitor[19–22]. It is a valuable result to secure such a kinase selectivity profile considering the similarities of the same type III receptor tyrosine kinase (FMS, cKit and FLT3).
3. Evaluation of IC50 and Selected Kinase Profiling
We used Reaction Biology Corp. Kinase HotSpotSM service (www.reactionbiology.com) for IC50 determination of all compounds and kinase profile. Assay protocol: In a final reaction volume of 25 μL, Peptide substrate, [[…]], 5 µM, ATP 10 µM, FLT3(h) (5-10 […]
mU) is incubated with 25 mM Tris pH 7.5, 0.02 mM EGTA, 0.66 mg/mL myelin basic protein, 10 mM Mg Acetate and [γ-33P-ATP] (specific activity approx. 500 cpm/pmol, concentration as required). The reaction is initiated by the addition of the Mg-ATP mix. After incubation for 40 minutes at room temperature, the reaction is stopped by the addition of 5 μL of a 3% phosphoric acid solution. 10 μL of the reaction is then spotted onto a P30 filtermat and washed three times for 5 minutes in 75 mM phosphoric acid and once in methanol prior to drying and […]

T1 sequence (Q9Y572 whole entry): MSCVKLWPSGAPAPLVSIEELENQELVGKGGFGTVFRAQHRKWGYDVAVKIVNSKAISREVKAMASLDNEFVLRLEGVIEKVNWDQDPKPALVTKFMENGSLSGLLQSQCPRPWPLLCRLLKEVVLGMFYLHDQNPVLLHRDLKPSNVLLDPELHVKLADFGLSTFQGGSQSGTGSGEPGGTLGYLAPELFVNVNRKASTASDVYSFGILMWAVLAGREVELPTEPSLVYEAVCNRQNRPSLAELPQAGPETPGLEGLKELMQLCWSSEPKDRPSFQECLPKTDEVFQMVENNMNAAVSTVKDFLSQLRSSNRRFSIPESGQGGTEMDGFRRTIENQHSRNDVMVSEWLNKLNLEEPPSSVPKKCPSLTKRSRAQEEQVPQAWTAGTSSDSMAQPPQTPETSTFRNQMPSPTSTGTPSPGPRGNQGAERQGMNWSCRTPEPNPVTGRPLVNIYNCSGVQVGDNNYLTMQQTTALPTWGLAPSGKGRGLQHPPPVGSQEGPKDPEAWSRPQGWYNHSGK

IC50 (FLT3) [µM]	SMILES	inhibitory activity towards FLT3 (in words) (FLT3)	also measured
–	O=C1Nc2ccc(I)cc2/C1=C/c1cc(Br)c(O)c(Br)c1 [GW5074, reference compound]	–	IC50 (RIPK3): 1.65 µM
–	CCN1CCN(Cc2cc(-c3ncc4ccc(NC(=O)c5cnoc5C)cc4n3)cc(C(F)(F)F)c2)CC1 [Compound 7e]	maintained the activity; also recorded: maintained inhibitory activity	decrease of activity towards FLT3 relative to 7d (FLT3; compared with 7d): about 10 fold
1.58	Cc1cn(-c2cc(-c3ncc4ccc(NC(=O)c5cnoc5C)cc4n3)cc(C(F)(F)F)c2)cn1 [Compound 7c]	maintained the activity; also recorded: maintained inhibitory activity	–
–	Cc1oncc1C(=O)Nc1ccc2cnc(-c3ccncc3)nc2c1 [Compound 7p]	did not show inhibitory activity towards FLT3 or were very weak	–
–	O=C(Nc1ccc2[nH]nc(-c3ccncc3)c2c1)[C@@H]1CCN(CC(=O)N2CCN(c3ccc(-c4ncccn4)cc3)CC2)C1 [SCH772984, reference compound]	–	IC50 (ERK1): 0.00447 µM
–	Cc1oncc1C(=O)Nc1ccc2cnc(-c3cc(C(C)(C)C)on3)nc2c1 [Compound 7l]	did not show inhibitory activity towards FLT3 or were very weak	–
3.59	Cc1oncc1C(=O)Nc1ccc2cnc(-c3cc(OC4CCN(C)CC4)cc(C(F)(F)F)c3)nc2c1 [Compound 7n]	maintained the activity; also recorded: maintained inhibitory activity	–
–	Cc1oncc1C(=O)Nc1ccc2cnc(-c3ccccn3)nc2c1 [Compound 7q]	did not show inhibitory activity towards FLT3 or were very weak	–
–	CC(=O)N1CCC(c2ncc3ccc(NC(=O)c4cnoc4C)cc3n2)CC1 [Compound 7o]	did not show inhibitory activity towards FLT3 or were very weak	–
4.7	COc1ccc(/C=C/c2ncc3ccc(NC(=O)c4cnoc4C)cc3n2)cc1 [Compound 7j]	maintained inhibitory activity	–
3.98	Cc1oncc1C(=O)Nc1ccc2cnc(-c3cc(N4CCOCC4)cc(C(F)(F)F)c3)nc2c1 [Compound 7b]	maintained the activity; also recorded: maintained inhibitory activity	activity on other kinases in panel (in words) [1]: almost no activity
0.79	Cc1oncc1C(=O)Nc1ccc2cnc(-c3ccc4[nH]ncc4c3)nc2c1 [Compound 7m]	maintained inhibitory activity	–
–	Cc1oncc1C(=O)Nc1ccc2cnc(-c3cnn(-c4ccccc4)c3C(F)(F)F)nc2c1 [Compound 7h]	loss of activity	–
